Values after ≈ are worked out from the molar mass of the structure shown.
Tested on: murine P388 lymphocytic leukemia (PS) cell line
Assay: murine P388 lymphocytic leukemia (PS system) cell line growth inhibition, standard National Cancer Institute protocol
Format: cell-based

Row | Structure (SMILES) | IC50 (Mus musculus, P388, murine P388 lymphocytic leukemia (PS system) cell line, read-out: PS cell line activity ED50) [µg/mL] | PS cell line activity ED50 (murine P388 lymphocytic leukemia (PS system) cell line) [µg/mL]
1 | O=C1CCc2ccc(O)c(c2)Oc2ccc(cc2)[C@@H]2O[C@@H]2CO1 (relative stereo) [Combretastatin D-1] | 3.3 (≈ 10.6 µM) | 
2 | O=C1CCc2ccc(O)c(c2)Oc2ccc(cc2)/C=C\CO1 [Combretastatin D-2] |  | 5.2

— patent US4940726A, “Cell growth inhibitory macrocyclic lactones denominated Combretastatin D-1 and Combretastatin D-2” (Arizona Board of Regents, priority 1989, dated 1990)
